# Patent publication US4622417A, “L-aminodicarboxylic-(O-cycloalkyl)-L-aminocarboxylate alkyl ester sweeteners” (General Foods Corporation, priority 1984, dated 1986)
# Peptide text beside a SMILES is read from it. * marks the point of attachment. tBu = CC(C)(C)*
# Experiments:
# [1] = system: panel of tasters; assay: Sensory evaluation of sweetness: taste panel matches aqueous solutions of the compound to sucrose standard solutions (sucrose equivalency); type: in vivo; settings: for Sucrose Equivalent: aqueous solution
# Text: A taste procedure for determination of sweetness merely involves the determination of sucrose equivalency. Sucrose equivalence for sweeteners are readily determined. The amount of a sweetener that is equivalent to a given weight percent sucrose can be determined by having a panel of tasters taste solutions of a sweetener at known concentrations and match its sweetness to standard solutions of sucrose. The following sensory evaluations were obtained by a panel of experts using known weight percent aqueous solutions of the above compound matched to sucrose standard solutions as previously described.
# [2] = as reported in the literature; cited from earlier work
# [3] = 0.005% concentration of compound
# [4] = 0.01% concentration of compound
# [5] = 0.025% concentration of compound
# [6] = 0.04% concentration of compound
# [7] = 0.05% concentration of compound
# [8] = 0.02% concentration of compound
# [9] = 0.0025% concentration of compound
SMILES,"Sweetness ratio (Compound:Sucrose) [1, 3]","Sucrose Equivalent [1, 3]","Sweetness ratio (Compound:Sucrose) [1, 4]","Sucrose Equivalent [1, 4]","Sweetness ratio (Compound:Sucrose) [1, 5]","Sucrose Equivalent [1, 5]",also measured
"COC(=O)[C@H](COC1CCCC1(C)C)NC(=O)[C@@H](N)CC(=O)O (stereo partly drawn) [2,2-dimethylcyclopentyl, α-L-aspartyl-O-(2,2-dimethylcyclopentyl)-L-serine methyl ester]",600,3%,530,5.3%,360,9%,
"CCC(C)(C)OC[C@H](NC(=O)[C@@H](N)CC(=O)O)C(=O)OC [tert. C5 H11, L-aspartyl-O-t-amyl-L-serine methyl ester]",,,,,,,"Sucrose Equivalent (Table 2, sweetness values of alkyl ethers) [2]: 230"
"COC(=O)[C@H](COCCC1CC2CCC1C2)NC(=O)[C@@H](N)CC(=O)O (stereo partly drawn) [2-norbornylethyl, α-L-Aspartyl-O-2-norbornylethyl-L-serine methyl ester]",,,,,,,"Sweetness ratio (Compound:Sucrose) [1, 6]: 105; Sucrose Equivalent [1, 6]: 4.2%"
"COC(=O)[C@H](COC1(C)CCCCC1)NC(=O)[C@@H](N)CC(=O)O [Example 2, L-aspartyl-O-(1-methylcyclohexyl)-L-serine methyl ester]",400,2%,450,4.5%,340,8.5%,
"COC(=O)[C@H](COC1CCCC1C)NC(=O)[C@@H](N)CC(=O)O (stereo partly drawn) [trans-2-methylcyclopentyl, L-aspartyl-[O-(2-methylcyclopentyl)]-L-serine methyl ester]",,,300,3%,212,5.3%,
"COC(=O)[C@H](COCCC12C=CC(CC1)C2)NC(=O)[C@@H](N)CC(=O)O (stereo partly drawn) [2-(4-norbornenyl)ethyl, α-L-Aspartyl-O-[2-(4-norbornenyl)ethyl]-L-serine methyl ester]",,,,,,,"Sweetness ratio (Compound:Sucrose) [1, 7]: 117; Sucrose Equivalent [1, 7]: 5.8%"
"COC(=O)[C@H](COC1CCCCC1)NC(=O)[C@@H](N)CC(=O)O [cyclohexyl, α-L-aspartyl-O-(cyclohexyl)-L-serine methyl ester]",,,120,1.2%,127,3.2%,
"COC(=O)[C@H](COC1(C)CC=CCC1)NC(=O)[C@@H](N)CC(=O)O (stereo partly drawn) [Example 7, L-aspartyl-O-(1-methylcyclohex-3-enyl)-L-serine methyl ester]",400,2%,250,2.5%,160,4%,
"COC(=O)[C@H](COC(C)(C)C)NC(=O)[C@@H](N)CC(=O)O [t-butyl, L-aspartyl-O-t-butyl-L-serine methyl ester, reference compound] (H-Asp-Ser(tBu)-OMe)",,,,,,,"Sweetness ratio (Compound:Sucrose) [1, 7]: 120; Sucrose Equivalent [1, 7]: 6%; Sucrose Equivalent (Table 2, sweetness values of alkyl ethers) [2]: 140"
"COC(=O)[C@H](COC1(C)CCCCCC1)NC(=O)[C@@H](N)CC(=O)O [Example 12, α-L-aspartyl-O-(1-methyl-cycloheptyl)-L-serine methyl ester]",,,200,2%,,,"Sweetness ratio (Compound:Sucrose) [1, 7]: 120; Sucrose Equivalent [1, 7]: 6%"
CCOC(=O)[C@H](COC1(C)CCCC1)NC(=O)[C@@H](N)CC(=O)O [α-L-Aspartyl-O-(1-methylcyclopentyl)-L-serine ethyl ester],,,,,,,sweetness equivalent ([1]; in vivo): 150 x sucrose
"COC(=O)[C@H](COC1CCCCC1C)NC(=O)[C@@H](N)CC(=O)O (stereo partly drawn) [2-cis-methylcyclohexyl, α-L-aspartyl-O-(2-methylcyclohexyl)-L-serine methyl ester]",360,1.8%,320,3.2%,240,6%,
"COC(=O)[C@H](CO[C@]1(C)CCCC[C@H]1C)NC(=O)[C@@H](N)CC(=O)O (single isomer, unassigned) [Example 4 TRANS ISOMER, L-aspartyl-O-(trans-1,2-dimethylcyclohexyl)-L-serine methyl ester]",300,1.5%,300,3.0%,,,"Sucrose Equivalent ([1]; 0.01% concentration of compound, listed as trans-1,2-dimethylcyclohexyl): 3%; Sweetness ratio (Compound:Sucrose) [1, 8]: 250; Sucrose Equivalent [1, 8]: 5.0%; Sucrose Equivalent ([1]; 0.02% concentration of compound, listed as trans-1,2-dimethylcyclohexyl): 5%"
"COC(=O)[C@H](COC1CCCC1)NC(=O)[C@@H](N)CC(=O)O [cyclopentyl, α-L-aspartyl-O-(cyclopentyl)-L-serine methyl ester]",300,1.5%,230,2.3%,180,4.5%,
"COC(=O)[C@H](COC1(C)CCC1)NC(=O)[C@@H](N)CC(=O)O [Example 3, L-aspartyl-O-(1-methylcyclobutyl)-L-serine methyl ester]",,,200,2%,,,"Sweetness ratio (Compound:Sucrose) [1, 7]: 160; Sucrose Equivalent [1, 7]: 8%"
"COC(=O)[C@H](COC(C)(C)C1CC=C(C)CC1)NC(=O)[C@@H](N)CC(=O)O (stereo partly drawn) [Example 8C, α-L-aspartyl-O-[1,1-dimethyl-1-(4-methylcyclohex-3-enyl)methyl]-L-serine methyl ester]",,,220,2.2%,208,5.2%,
"COC(=O)[C@H](COC1C(C)(C)CCC1(C)C)NC(=O)[C@@H](N)CC(=O)O [Example 10, α-L-Aspartyl-O-2,2,5,5-tetramethylcyclopentyl-L-serine methyl ester]",1000,5%,800,8%,,,"Sweetness ratio (Compound:Sucrose) [1, 9]: 1200; Sucrose Equivalent [1, 9]: 3%"
"COC(=O)[C@H](COC1CC2CCC1(C)C2(C)C)NC(=O)[C@@H](N)CC(=O)O (stereo partly drawn) [Example 11, α-L-Aspartyl-O-1-bornyl-L-serine methyl ester]",200,1%,250,2.5%,180,4.5%,
"COC(=O)[C@H](COC1(C)CCCC1)NC(=O)[C@@H](N)CC(=O)O [I, L-aspartyl-O-(1-methylcyclopentyl)-L-serine methyl ester]",500,2.5%,500,5%,400,10%,"Sucrose Equivalent [1, 7]: 12%; temporal and sensory qualities ([1]; determined by the panel of experts): excellent temporal and sensory qualities"
"COC(=O)[C@H](CO[C@@]1(C)CCCC[C@H]1C)NC(=O)[C@@H](N)CC(=O)O (single isomer, unassigned) [Example 4 CIS ISOMER, L-aspartyl-O-(cis-1,2-dimethylcyclohexyl)-L-serine methyl ester]",400,2.0%,400,4.0%,,,"Sucrose Equivalent ([1]; 0.005% concentration of compound, listed as Cis-1,2-dimethylcyclohexyl): 2%; Sucrose Equivalent ([1]; 0.01% concentration of compound, listed as Cis-1,2-dimethylcyclohexyl): 4%; Sweetness ratio (Compound:Sucrose) [1, 8]: 350; Sucrose Equivalent [1, 8]: 7.0%; Sucrose Equivalent ([1]; 0.02% concentration of compound, listed as Cis-1,2-dimethylcyclohexyl): 7%"
"CCC1(OC[C@H](NC(=O)[C@@H](N)CC(=O)O)C(=O)OC)CCCC1 [Example 5, L-aspartyl-O-(1-ethylcyclopentyl)-L-serine methyl ester]",400,2%,400,4%,,,"Sweetness ratio (Compound:Sucrose) [1, 8]: 300; Sucrose Equivalent [1, 8]: 6%"
"COC(=O)[C@H](COC(C)(C)C1CCC(C)CC1)NC(=O)[C@@H](N)CC(=O)O (stereo partly drawn) [Example 8D, α-L-aspartyl-O-[1,1-dimethyl-1-(4-methylcyclohexyl)methyl]-L-serine methyl ester]",,,,,240,6%,"Sucrose Equivalent (Sensory Evaluations, Example 8) ([1]; 0.01% concentration): 2.2; Sucrose Equivalent (Sensory Evaluations, Example 8) ([1]; 0.025% concentration): 5.2; Sweetness ratio (Compound:Sucrose) [1, 7]: 220; Sucrose Equivalent [1, 7]: 11%"
